In brackets after ≈: the same amount, converted by molar mass. Entries after “also recorded” stand apart in the source; their conditions may differ.

In one series the test system is E. Coli ML/35. Put plainly: Minimal inhibiting concentration (MIC), in vitro antibacterial activity, E. Coli ML/35. It counts as cell-based. The conditions noted are these: Escherichia coli. An excerpt: (§1) The derivatives of 3-carboxyrifamycins S and SV according to the present invention have an antibacterial activity in vitro as shown by the data in the examples where are reported the minimal inhibiting concentrations (MIC) expressed in mcg/ml against different patogenic microorganisms.

The subject of the next series is Klebsiella Ottaviani. Put plainly: Minimal inhibiting concentration (MIC), in vitro antibacterial activity, Klebsiella Ottaviani. The series is classed as cell-based. The conditions noted are these: read-out: Minimal inhibiting concentration (MIC).
Excerpt: as §1

The next series concerns Salmonella p typhi B. In words: Minimal inhibiting concentration (MIC), in vitro antibacterial activity, Salmonella p typhi B. The series is classed as cell-based. As to conditions: read-out: Minimal inhibiting concentration (MIC).
Excerpt: as §1

For a further series, the system named is St. Aureus 209 P. Put plainly: Minimal inhibiting concentration (MIC), in vitro antibacterial activity, St. Aureus 209 P. It counts as cell-based. The conditions noted are these: Staphylococcus aureus.
Excerpt: as §1

A short description of series [1]: chemical stability (observation). It counts as physicochemical.

For `CO[C@H]1/C=C/O[C@@]2(C)Oc3c(C)c(O)c4c(c3C2=O)C(=O)C(C(=O)N(C)N2CCCCC2)=C(NC(=O)/C(C)=C\C=C\[C@H](C)[C@H](O)[C@@H](C)[C@@H](O)[C@@H](C)[C@H](OC(C)=O)[C@@H]1C)C4=O` [Example 14, 3-((N-(N'-piperidinyl)N-methyl)aminocarbonyl)rifamycin S], the MIC was > 50 µg/mL with E. Coli ML/35, > 50 µg/mL in the series on Klebsiella Ottaviani, > 50 µg/mL in the series with Salmonella p typhi B and ~0.03 µg/mL (≈ 0.0359 µM) against St. Aureus 209 P.
Take `CO[C@H]1/C=C/O[C@@]2(C)Oc3c(C)c(O)c4c(c3C2=O)C(=O)C(C(=O)NN(C)C)=C(NC(=O)/C(C)=C\C=C\[C@H](C)[C@H](O)[C@@H](C)[C@@H](O)[C@@H](C)[C@H](OC(C)=O)[C@@H]1C)C4=O` [Example 10, 3-(NN-dimethyl N-hydrazinocarbonyl)rifamycin S]: the MIC in the series with E. Coli ML/35, in the series with Klebsiella Ottaviani and in the series on Salmonella p typhi B was > 50 µg/mL in each case.
In the case of `CO[C@H]1/C=C/O[C@@]2(C)Oc3c(C)c(O)c4c(c3C2=O)C(=O)C(C(=O)N2CCN(C)CC2)=C(NC(=O)/C(C)=C\C=C\[C@H](C)[C@H](O)[C@@H](C)[C@@H](O)[C@@H](C)[C@H](OC(C)=O)[C@@H]1C)C4=O` [Example 8, 3-(N-methyl N'-piperazinylcarbonyl)rifamycin S], the MIC with E. Coli ML/35 is > 50 µg/mL; in the series with Klebsiella Ottaviani, > 50 µg/mL; in the series with Salmonella p typhi B it was > 50 µg/mL; against St. Aureus 209 P, 0.1 to 0.25 µg/mL (≈ 0.122 to 0.304 µM).
As to 3-carboxyrifamycin, the stability result in series [1] is “instable product and gives very easily rise to reaction of decarboxylation; also recorded: unstable product which easily decomposes”.
Turning to `CO[C@H]1/C=C/O[C@@]2(C)Oc3c(C)c(O)c4c(c3C2=O)C(=O)C(C(=O)N(C)C)=C(NC(=O)/C(C)=C\C=C\[C@H](C)[C@H](O)[C@@H](C)[C@@H](O)[C@@H](C)[C@H](OC(C)=O)[C@@H]1C)C4=O` [Example 13, 3-(N,N dimethylaminocarbonyl)rifamycin S], the MIC against E. Coli ML/35, with Klebsiella Ottaviani and in the series on Salmonella p typhi B was > 50 µg/mL each time.
Consider `CO[C@H]1/C=C/O[C@@]2(C)Oc3c(C)c(O)c4c(c3C2=O)C(=O)C(C(=O)OCC(O)CO)=C(NC(=O)/C(C)=C\C=C\[C@H](C)[C@H](O)[C@@H](C)[C@@H](O)[C@@H](C)[C@H](OC(C)=O)[C@@H]1C)C4=O` (some centres unmarked) [Example 12, 3-(1 glyceroxycarbonyl)rifamycin S], for which the MIC with E. Coli ML/35 is > 100 µg/mL; with Klebsiella Ottaviani, > 100 µg/mL; with Salmonella p typhi B, > 100 µg/mL; against St. Aureus 209 P, ~0.5 µg/mL (≈ 0.614 µM).
As for `COC(=O)C1=C2NC(=O)/C(C)=C\C=C\[C@H](C)[C@H](O)[C@@H](C)[C@@H](O)[C@@H](C)[C@H](OC(C)=O)[C@H](C)[C@@H](OC)/C=C/O[C@@]3(C)Oc4c(C)c(O)c(c(c4C3=O)C1=O)C2=O` [Example 6, 3-(carbomethoxy)rifamycin S], the MIC is 25 to 50 µg/mL (≈ 33.2 to 66.3 µM) in the series with E. Coli ML/35, 25 to 50 µg/mL (≈ 33.2 to 66.3 µM) in the series on Klebsiella Ottaviani, > 50 µg/mL with Salmonella p typhi B and 0.05 to 0.1 µg/mL (≈ 0.0663 to 0.133 µM) with St. Aureus 209 P.

The values are drawn from patent US4200573A, “Derivatives of 3-carboxyrifamycin S and SV and process for their preparation” (Alfa Farmaceutici, S.p.A., priority 1977, dated 1980).
